Results taken from ChEMBL document CHEMBL1201862, “PubChem BioAssay data set” (2004).
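48-hour exposure; five concentrations; linearly interpolated endpoints. GI50 = concentration required for 50% inhibition of growth.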 Active and inactive are the calls of the source. Rule as the data show it: active = GI50 up to about 1.1 µM and inactive = higher.

How the values were obtained:
Test in all cases: DTP human tumour cell line panel, 48 h
[1] = system: HOP-92
[2] = system: T47D
[3] = system: BT-549
[4] = system: RPMI-8226
[5] = system: SK-MEL-2
[6] = system: A498
[7] = system: Hs-578T
[8] = system: HL-60
[9] = system: HCT-116
[10] = system: NCI/ADR-RES
[11] = system: Malme-3M
[12] = system: UACC-257
[13] = system: HOP-62
[14] = system: NCI-H23
[15] = system: MDA-N
[16] = system: MOLT-4
[17] = system: SN12C
[18] = system: SK-MEL-5
[19] = system: OVCAR-8
[20] = system: UACC-62

Row | SMILES | GI50 [1] | GI50 [2] | GI50 [3] | GI50 [4] | GI50 [5] | GI50 [6] | GI50 [7] | GI50 [8] | GI50 [9] | GI50 [10] | GI50 [11] | GI50 [12] | GI50 [13] | GI50 [14] | GI50 [15] | GI50 [16] | GI50 [17] | GI50 [18] | GI50 [19] | GI50 [20]
1 | c1cc2c(cc1C1=NCCN1)c1cc(C3=NCCN3)ccc1n2CC1CCCCC1 | 8 µM (inactive) | 19.1 µM (inactive) | 18.5 µM (inactive) | 22.7 µM (inactive) | 15.7 µM (inactive) | > 100 µM (inactive) | 6.19 µM (inactive) | 14.3 µM (inactive) | 12.9 µM (inactive) | > 100 µM (inactive) | 8.11 µM (inactive) | 22.7 µM (inactive) | 23.8 µM (inactive) | 17.1 µM (inactive) | 23.6 µM (inactive) | 5.05 µM (inactive) | 14 µM (inactive) | 11.9 µM (inactive) | 25.4 µM (inactive) | –
2 | O=C1CC(c2ccccc2)NCCCCN2CC(CN1)C(C(O)c1ccccc1)C2=O (centres undefined) | > 100 µM (inactive) | > 100 µM (inactive) | > 100 µM (inactive) | – | > 100 µM (inactive) | > 100 µM (inactive) | > 100 µM (inactive) | > 100 µM (inactive) | > 100 µM (inactive) | > 100 µM (inactive) | > 100 µM (inactive) | > 100 µM (inactive) | > 100 µM (inactive) | > 100 µM (inactive) | > 100 µM (inactive) | > 100 µM (inactive) | > 100 µM (inactive) | > 100 µM (inactive) | > 100 µM (inactive) | > 100 µM (inactive)
3 | c1ccc(-c2cnc(-c3ccc(-c4ncc(-c5ccccc5)o4)cc3)o2)cc1 | > 100 µM (inactive) | > 100 µM (inactive) | > 100 µM (inactive) | > 100 µM (inactive) | – | > 100 µM (inactive) | > 100 µM (inactive) | > 100 µM (inactive) | > 100 µM (inactive) | > 100 µM (inactive) | > 100 µM (inactive) | > 100 µM (inactive) | > 100 µM (inactive) | > 100 µM (inactive) | > 100 µM (inactive) | > 100 µM (inactive) | > 100 µM (inactive) | > 100 µM (inactive) | > 100 µM (inactive) | > 100 µM (inactive)
4 | c1ccc2c(CC3NCCN3)cccc2c1 | 46 µM (inactive) | > 100 µM (inactive) | > 100 µM (inactive) | > 100 µM (inactive) | > 100 µM (inactive) | > 100 µM (inactive) | > 100 µM (inactive) | > 100 µM (inactive) | > 100 µM (inactive) | > 100 µM (inactive) | > 100 µM (inactive) | > 100 µM (inactive) | > 100 µM (inactive) | > 100 µM (inactive) | > 100 µM (inactive) | > 100 µM (inactive) | > 100 µM (inactive) | > 100 µM (inactive) | > 100 µM (inactive) | > 100 µM (inactive)
5 | CC(C)OC(=O)c1ccc(NCc2cc(O)ccc2O)cc1 | 1.95 µM (inactive) | 2.18 µM (inactive) | 2.38 µM (inactive) | 0.483 µM (active) | 10.9 µM (inactive) | 22.5 µM (inactive) | 2.04 µM (inactive) | 0.462 µM (active) | 5.81 µM (inactive) | 1.95 µM (inactive) | 2.16 µM (inactive) | 10.3 µM (inactive) | 4.98 µM (inactive) | 4.36 µM (inactive) | 2.52 µM (inactive) | 1.39 µM (inactive) | 1.71 µM (inactive) | 3.29 µM (inactive) | 2.51 µM (inactive) | 10.6 µM (inactive)
6 | CC1=CC[C@@]2(CO)[C@@H]([C@@H]1C)[C@H]1CC[C@@H]3[C@@]4(C)CC[C@H](O)C(C)(C)[C@@H]4CC[C@@]3(C)[C@]1(C)C[C@@H]2O | 16.9 µM (inactive) | 11.9 µM (inactive) | 20.3 µM (inactive) | – | – | 24 µM (inactive) | 15.8 µM (inactive) | 11.7 µM (inactive) | 21.5 µM (inactive) | 27.1 µM (inactive) | 20.3 µM (inactive) | 27.2 µM (inactive) | 14.3 µM (inactive) | 17.5 µM (inactive) | 81.7 µM (inactive) | 21.3 µM (inactive) | 75.3 µM (inactive) | 13 µM (inactive) | 14.3 µM (inactive) | 20.9 µM (inactive)
7 | CCOC(=O)/C(C#N)=N\Nc1ccc(-n2c(C)nc3ccc(Br)cc3c2=O)cc1 | > 100 µM (inactive) | 34.2 µM (inactive) | 88.7 µM (inactive) | 30.3 µM (inactive) | > 100 µM (inactive) | > 100 µM (inactive) | 51.3 µM (inactive) | 21.9 µM (inactive) | 42.2 µM (inactive) | 62.4 µM (inactive) | – | > 100 µM (inactive) | 91.6 µM (inactive) | > 100 µM (inactive) | > 100 µM (inactive) | 27.4 µM (inactive) | 63.8 µM (inactive) | 25.6 µM (inactive) | 68.1 µM (inactive) | 85.5 µM (inactive)
8 | Cc1nc(C)c(N2CCN([N+](=O)[O-])CC2)c(O)n1 | > 100 µM (inactive) | > 100 µM (inactive) | > 100 µM (inactive) | > 100 µM (inactive) | – | > 100 µM (inactive) | > 100 µM (inactive) | > 100 µM (inactive) | > 100 µM (inactive) | > 100 µM (inactive) | > 100 µM (inactive) | > 100 µM (inactive) | > 100 µM (inactive) | > 100 µM (inactive) | > 100 µM (inactive) | > 100 µM (inactive) | > 100 µM (inactive) | > 100 µM (inactive) | > 100 µM (inactive) | > 100 µM (inactive)
9 | Cc1cc2c(cc1Cl)Sc1nnc(Nc3ccccc3)n1S2(=O)=O | 5.57 µM (inactive) | 7.78 µM (inactive) | 7.78 µM (inactive) | 2.61 µM (inactive) | 4.84 µM (inactive) | 12.7 µM (inactive) | 3.15 µM (inactive) | 1.98 µM (inactive) | 9.64 µM (inactive) | 6.22 µM (inactive) | – | 16.6 µM (inactive) | 3.64 µM (inactive) | 3.59 µM (inactive) | 6.05 µM (inactive) | 3.07 µM (inactive) | – | 11.7 µM (inactive) | 5.97 µM (inactive) | –
10 | COc1ccc(/C=N/NC(=S)Nc2cc(C)ccc2OC)cc1 | 25.2 µM (inactive) | 32.9 µM (inactive) | 26.6 µM (inactive) | 11.1 µM (inactive) | 19.8 µM (inactive) | 35.2 µM (inactive) | 78.5 µM (inactive) | 20.3 µM (inactive) | 29.2 µM (inactive) | 41.9 µM (inactive) | 25.8 µM (inactive) | – | 34.8 µM (inactive) | 29.8 µM (inactive) | 21.1 µM (inactive) | 9.98 µM (inactive) | 25.1 µM (inactive) | 15.6 µM (inactive) | 37.6 µM (inactive) | 36.1 µM (inactive)
